Assay results as given in patent US5216156A, “Non-migrating 1-hydrocarbyloxy-2,2,6,6-tetramethylpiperidine 1,3,5-triazine derivatives” (Ciba-Geigy Corporation, priority 1992, dated 1993).

Assays:
[1] = Extraction of stabilizer from high solids thermoset acrylic enamel film by refluxing toluene, GC (Example 78); settings: refluxing toluene one hour; for Percent Stabilizer Extracted: 1% by weight on resin solids, baked 30 minutes at 121° C., stored one week, GC; for extraction of stabilizer from the stabilized enamel: in words, thermoset acrylic enamel
Source text: A model high solids thermoset acrylic enamel based on a binder of 60% of a polymer comprising monomers such as 2-hydroxyethyl acrylate, butyl acrylate, butyl methacrylate, styrene and acrylic acid, and 40% of a melamine resin with an acid catalyst such as p-toluenesulfonic acid is formulated and stabilized with 1% by weight, based on resin solids, of a variety of hindered amine stabilizers.
This enamel is spray applied to a thickness of 1.8-2.0 mils (0.0457-0.0508 mm) onto glass plates and baked for 30 minutes at 250° F. (121° C.). After storage for one week in an air-conditioned room, the films are removed from the glass plates and placed in a round-bottomedflask and extracted with refluxing toluene for one hour. After one hour, the films are removed and the toluene extract is analyzed for extracted stabilizer by gas chromatography.

[2] = Extraction of stabilizer from polyester polyurethane refinish enamel film by refluxing toluene, GC (Example 75); settings: 2% by weight on resin solids, film baked 30 minutes at 60° C., stored one month, refluxing toluene one hour
Method: A polyester polyurethane refinish enamel is prepared from a polyester resin (DESMOPHEN® 670A-80, Mobay) and a polyurethane resin (DESMODUR® N-75, Mobay) in a ratio of 1.0:1.1 equivalents, with 1% DABCO® T-12 […] as catalyst. The enamel is stabilized with 2% by weight, based on resin solids, of various hindered amine stabilizers. The stabilized enamel is spray applied to a thickness of 1.8-2.0 mils (0.0457-0.0508 mm) onto glass plates and baked for 30 minutes at 140° F. (60° C.). After storage for one month in an air-conditioned room, the films are removed from the glass plates and placed in a round-bottomed flask and then extracted with refluxing toluene for one hour. The films are then removed and the toluene is analyzed for any stabilizer extracted by gas chromatography.
If the stabilizer is chemically bonded to the polymer film, little if any of the stabilizer is extracted by the refluxing toluene.

[3] = Hindered amine basicity (pKa); assay type: physicochemical; settings: Table 1; N-substituted derivatives of 4-hydroxy-2,2,6,6-tetramethylpiperidine
Source text: There are clear advantages in using the hindered amine compounds having 1-hydrocarbyloxy substitution. In certain polymer systems, there is a definite advantage in using a less basic stabilizer. For example, the cure of acid-catalyzed thermoset melamine crosslinked automotive coatings systems can be severely retarded by an interaction between the acid catalyst and a basic hindered amine stabilizer.

| Percent Stabilizer Extracted [1] [%] | Percent Stabilizer Extracted [2] [%] | pKa [3] | Structure (SMILES) | extraction of stabilizer from the stabilized enamel [1] |
| --- | --- | --- | --- | --- |
| 0 | 0 | – | CCCCN(c1nc(NCCO)nc(N(CCCC)C2CC(C)(C)N(OC3CCCCC3)C(C)(C)C2)n1)C1CC(C)(C)N(OC2CCCCC2)C(C)(C)C1 [Example 1, 2-[(2-Hydroxyethyl)amino]-4,6-bis[N-(1-cyclohexyloxy-2,2,6,6-tetramethylpiperidin-4-yl)-butylamino]-1,3,5-triazine] | resist extraction from the stabilized enamel |
| 0 | 0 | – | CCCCCCCCON1C(C)(C)CC(N(CCCC)c2nc(NCCO)nc(N(CCCC)C3CC(C)(C)N(OCCCCCCCC)C(C)(C)C3)n2)CC1(C)C [Example 2, 2-[(2-Hydroxyethyl)amino]-4,6-bis[N-(1-octyloxy-2,2,6,6-tetramethylpiperidin-4-yl)butylamino]-1,3,5-triazine] | resist extraction from the stabilized enamel |
| – | 23 | – | CCCCN(c1nc(NCCCCCC(=O)O)nc(N(CCCC)C2CC(C)(C)N(OC3CCCCC3)C(C)(C)C2)n1)C1CC(C)(C)N(OC2CCCCC2)C(C)(C)C1 [Example 15, N-{4,6-Bis[(1-cyclohexyloxy-2,2,6,6-tetramethylpiperidin-4-yl)butylamino]-1,3,5-triazin-2-yl}-6-aminohexanoic acid] | – |
| – | 21 | – | CCCCCCCCON1C(C)(C)CC(N(CCCC)c2nc(NCCCCCC(=O)O)nc(N(CCCC)C3CC(C)(C)N(OCCCCCCCC)C(C)(C)C3)n2)CC1(C)C [Example 16, N-{4,6-Bis[(1-octyloxy-2,2,6,6-tetramethylpiperidin-4-yl)butylamino]-1,3,5-triazin-2-yl}-6-aminohexanoic acid] | – |
| 100 | 100 | – | CCCCCCCCON1C(C)(C)CC(OC(=O)CCCCCCCCC(=O)OC2CC(C)(C)N(OCCCCCCCC)C(C)(C)C2)CC1(C)C [HA 1, bis(1-octyloxy-2,2,6,6-tetramethylpiperidin-4-yl) sebacate, reference compound] | – |
| – | – | 10.0 | CC1(C)CC(O)CC(C)(C)N1 [N--H, 4-hydroxy-2,2,6,6-tetramethylpiperidine] | – |
| – | – | 10.0 | CN1C(C)(C)CC(O)CC1(C)C [N--Me] | – |
| – | – | 4.8 | CON1C(C)(C)CC(O)CC1(C)C [N--OMe] | – |
